Assays:
serum HDL-C = assay: Serum HDL-C in wild-type mice after 7 days of treatment; format: in vivo, wild-type (WT; C57BL/6) mice; settings: for HDL-C relative to controls (methylcellulose): gavage once daily 7 days, 100 mg/kg, gemfibrozil 20 mg/kg, troglitazone 6 and 60 mg/Kg, Dunnett's procedure
Method: In all cases methylcellulose was used as a vehicle control. These chemicals were administered, as a suspension in 1% methylcellulose (vehicle) by gavage using a 20 G—1½-inch feeding needle. The animals were treated in groups of three and for each treated group two mice were treated simultaneously with methylcellulose (vehicle). Each treatment was given once daily in the morning for seven days. […] The volume of vehicle used to suspend the treatment drugs and the dose of vehicle for control group was 7 ml/kg. Doses were selected based on the results obtained from previous studies in rats except for troglitazone and hyperforin, for which doses were weight-adjusted using estimates of average daily human doses as reference. After the completion of the treatment (i.e. on day 8), blood samples were collected from the tail of the animals for serum HDL-C and ApoA1 determination. Blood samples were allowed to clot for 2 hours, centrifuged at 14,000 rpm for 20 minutes, and serum was collected. The serum samples were then stored at −20° C. for up to 24 hours before quantitative determination of HDL-C and ApoA1. HDL-C was determined quantitatively in the serum using Liquid Direct HDL kits. The kit contained reagent 1, reagent 2, and HDL calibrator. The assay consisted of two steps. […] The peroxide byproduct of this reaction is rendered non-colored via catalase reduction. […] In this second step, the catalase is inhibited, the remaining HDL cholesterol specifically reacts with cholesterol esterase and cholesterol oxidase, and in the presence of peroxidase the peroxide byproduct reacts with 4-aminoantipyrine and HDAOS to form a colored […] dye. Both these reactions were allowed to occur at 37° C. […] Each sample was analyzed twice, and the average of both readings was used. Statistical treatments for HDL-C and apoA1 in mice were identical. For each of these variables, three basic analyses were performed, one for WT mice, one for PXR-KOs, and one for the two groups combined. Statistical analysis was performed in SAS (SAS Release 8, 1999, SAS Institute Inc., Cary, N.C.). In all cases the primary method of comparing treatments was ANOVA. Prior to performing this analysis, both variables were normalized by the geometric mean of their associated controls. Normality and homoscedasticity (constancy of variance across groups) were evaluated, with an appropriate data transformation (logarithmic) applied if necessary. These properties were checked before (to evaluate the need for transformation) and after transformation (to confirm the adequacy of the transformation) using normal probability plots and Levene's test for equality of variances (Snedecor et al., Statistical Methods, 8th Edition, Iowa State University Press, pp. 59-62 and 252-253, 1989). […]

serum ApoA1 [1] = assay: Serum apoA1 in wild-type mice after 7 days of treatment (immuno-turbidimetric assay); format: in vivo, wild-type (WT; C57BL/6) mice; settings: for apoA1 relative to controls (methylcellulose): gavage once daily 7 days, 100 mg/kg, gemfibrozil 20 mg/Kg, troglitazone 6 and 60 mg/Kg, Dunnett's procedure
Method: (§1) PXR-KO mice were treated with either rifampicin, gemfibrozil, or CDD 3540. In all cases methylcellulose was used as a vehicle control. These chemicals were administered, as a suspension in 1% methylcellulose (vehicle) by gavage using a 20 G—1½-inch feeding needle. The animals were treated in groups of three and for each treated group two mice were treated simultaneously with methylcellulose (vehicle). Each treatment was given once daily in the morning for seven days. The doses were 100 mg/kg for CTZ, rifampicin, CDD 3540, phenobarbital and TCPOBOP, 6 mg/kg and 60 mg/Kg for troglitazone and 0.175 mg/Kg and 1.75 mg/Kg for hyperforin, and for gemfibrozil 20 mg/Kg and 100 mg/Kg. The volume of vehicle used to suspend the treatment drugs and the dose of vehicle for control group was 7 ml/kg.
(§2) After the completion of the treatment (i.e. on day 8), blood samples were collected from the tail of the animals for serum HDL-C and ApoA1 determination. Blood samples were allowed to clot for 2 hours, centrifuged at 14,000 rpm for 20 minutes, and serum was collected. The serum samples were then stored at −20° C. for up to 24 hours before quantitative determination of HDL-C and ApoA1.
An immuno-turbidimetric assay was developed for quantitative determination of ApoA1 in mouse serum. Commercially available stock solution of purified mouse ApoA1 (79 mg/dl) was used to construct a standard curve. A potassium phosphate buffer solution was prepared by diluting 1 ml of monobasic 1.0 M potassium phosphate buffer to 10 ml with distilled water, and the pH of the solution was adjusted to 7.2 using 0.1 N NaOH. […] A dilution of 1:4000 of the stock concentration was used per the manufacturer's recommendation. The standard curve was prepared with 0, 39.5, 79, and 158 mg/dl of mouse apoA1. 1 μl of mouse plasma was mixed with 3 μl of distilled water for quantitation of apoA1. 500 μl of buffer solution was added to 4 μl of total sample volume prepared as described. After 5 minutes, 100 μl of antibody solution was added. The mixture was allowed to incubate at 37° C. for 3 minutes. Absorbance was measured at 580 nm using a Beckmann DU640 Spectrophotometer. Each sample or standard was analyzed twice, and the average of both readings was used. Serum ApoA1 concentrations from control mice were also compared with the normal ApoA1 levels in mice, obtained from the literature, to affirm the validity of the assay procedure.
Statistical treatments for HDL-C and apoA1 in mice were identical. For each of these variables, three basic analyses were performed, one for WT mice, one for PXR-KOs, and one for the two groups combined. Statistical analysis was performed in SAS (SAS Release 8, 1999, SAS Institute Inc., Cary, N.C.). In all cases the primary method of comparing treatments was ANOVA. Prior to performing this analysis, both variables were normalized by the geometric mean of their associated controls. Normality and homoscedasticity (constancy of variance across groups) were evaluated, with an appropriate data transformation (logarithmic) applied if necessary. These properties were checked before (to evaluate the need for transformation) and after transformation (to confirm the adequacy of the transformation) using normal probability plots and Levene's test for equality of variances (Snedecor et al., Statistical Methods, 8th Edition, Iowa State University Press, pp. 59-62 and 252-253, 1989). […]

serum ApoA1 [2] = assay: Serum apoA1 in PXR-KO mice after 7 days of treatment; format: in vivo; settings: for apoA1 relative to control: gavage once daily 7 days, gemfibrozil 20 mg/kg, others 100 mg/kg
Method: as §1, §2
An immuno-turbidimetric assay was developed for quantitative determination of ApoA1 in mouse serum. Commercially available stock solution of purified mouse ApoA1 (79 mg/dl) was used to construct a standard curve. A potassium phosphate buffer solution was prepared by diluting 1 ml of monobasic 1.0 M potassium phosphate buffer to 10 ml with distilled water, and the pH of the solution was adjusted to 7.2 using 0.1 N NaOH. […] 1 μl of mouse plasma was mixed with 3 μl of distilled water for quantitation of apoA1. […] Absorbance was measured at 580 nm using a Beckmann DU640 Spectrophotometer. Each sample or standard was analyzed twice, and the average of both readings was used. […]
Statistical treatments for HDL-C and apoA1 in mice were identical. […] Normality and homoscedasticity (constancy of variance across groups) were evaluated, with an appropriate data transformation (logarithmic) applied if necessary. […]

hepatic apoA1 mRNA [3] = assay: Time course of hepatic apoA1 mRNA in rats (Northern blot); format: in vivo, rat; settings: 50 mg/Kg by gavage once daily, beginning after treatment day 2 and constant thereafter, p<0.05 vs vehicle controls
Method: Hepatic apoA1 mRNA was measured by Northern Blot hybridization to total hepatic RNA with oligonucleotides for apoprotein A1 and elongation factor-1α (EF-1α). The procedure was similar to that described in the Slama et al. reference for hepatic CYP3A mRNA. The following oligonucleotide sequence used for rat apoA1 mRNA was based on the nucleotide sequence for rat apoA1 described by Haddad et al. (“Linkage, evolution and expression of the rat apolipoprotein A-1, C-III, and A-IV genes,” J Biol Chem 1986; 261: 13268-13277): 3′ CTACGTCAGTTCCTGTCGCCGTCTCTGATACACAGGGTCAAACTTAGGAGGTGAAACCCG 5′.
[…] were dosed with CDD 3540 (50 mg/Kg) by gavage once daily for 8 days, and three rats were treated with methylcellulose (vehicle controls). Groups of three treated rats were sacrificed at 6 and 12 h after the first dose, 12 and 24 h after the second dose, and at 12 hours after doses 4-8, respectively. Hepatic apoA1 mRNA was quantitated by northern blot analysis as described above.
Temporal differences in hepatic apoA1 mRNA in rats were evaluated by a simple Analysis of Variance (ANOVA) and a Tukey's post-hoc test.

CYP3A = CYP3A activity in rats (hepatic microsomal EDM activity, ethosuximide clearance); format: in vivo, rat
Method: (§3) Treatments were administered by gavage once daily in the morning for eight (8) days.
Ethosuximide was prepared as a 3.5% (w/v) solution dissolved in normal saline. Ethosuximide was administered in a dose of 35 mg/kg via tail vein injection 24 hours following the eighth pretreatment dose.
(§4) Whole blood was collected by cardiac puncture under CO2 anesthesia 8 hours following ethosuximide infusion. Animals were then sacrificed using CO2 and cervical dislocation. Livers were excised and used for analysis of erythromycin demethylase activity (as described in the Slama et al. reference) and hepatic apoA1 mRNA. Plasma was separated from whole blood anticoagulated with 5 mM EDTA at room temperature using a bench top centrifuge (5000 rpm) for 5 minutes. Plasma was stored unpreserved at −20° C. for up to 5 days, and subsequently analyzed for ethosuximide and for HDL-C. Concentrations of ethosuximide and HDL-C were measured in plasma by fluorescence polarization immunoassay (fpia) using a TDx analyzer (Abbott Laboratories, Irving, Tex.) and commercially available reagents (Abbott Laboratories, Abbott Park, Ill.).

HDL-C = HDL-C in rats after 8 days of treatment; format: in vivo, rat
Method: as §3, §4

hepatic apoA1 mRNA [4] = assay: Hepatic apoA1 mRNA in rats after 8 days of treatment; format: in vivo, rat
Method: as §4, with “Treatments were administered by gavage once daily in the morning for eight (8) days. Whole” for “Whole”, “-20°” for “−20°”, “Ill.). […] Hepatic apoA1 mRNA was measured by Northern Blot hybridization to total hepatic RNA with oligonucleotides for apoprotein A1 and elongation factor-1α (EF-1α). The procedure was similar to that described in the Slama et al. reference for hepatic CYP3A mRNA. […]” for “Ill.).”

Structure (SMILES): Clc1cnc(Oc2ccc(Oc3ncc(Cl)cc3Cl)cc2)c(Cl)c1 [TCPOBOP, 1,4-bis[2-(3,5-dichloropyridyloxy)]benzene]
- HDL-C relative to controls (methylcellulose) (serum HDL-C): did not significantly elevate
- apoA1 relative to controls (methylcellulose) (serum ApoA1 [1]): did not significantly elevate

Structure (SMILES): CO[C@H]1/C=C/O[C@@]2(C)Oc3c(C)c(O)c4c(O)c(c(/C=N/N5CCN(C)CC5)c(O)c4c3C2=O)NC(=O)/C(C)=C\C=C\[C@H](C)[C@H](O)[C@@H](C)[C@@H](O)[C@@H](C)[C@H](OC(C)=O)[C@@H]1C [rifampin, rifampicin]
- increase in HDL-C (serum HDL-C; 100 mg/Kg once daily 7 days): about 25%

Structure (SMILES): Cc1ccc(C)c(OCCCC(C)(C)C(=O)O)c1 [gemfibrozil]
- HDL-C relative to controls (methylcellulose) (serum HDL-C): significantly elevated
- dose at peak of the dose-response curve (serum ApoA1 [1]; apoA1 and HDL-C, declined with higher doses): 20 mg/kg
- apoA1 relative to controls (methylcellulose) (serum ApoA1 [1]): significantly elevated
- apoA1 relative to control (serum ApoA1 [2]): significantly increase
- increase in apoA1 relative to control (serum ApoA1 [2]; gemfibrozil 20 mg/kg once daily 7 days): ~1.7 fold

Structure (SMILES): Fc1ccc(C(c2ccc(F)cc2)(c2ccc(F)cc2)n2ccnc2)cc1 [CDD 3540]
- increase in hepatic apoA1 (hepatic apoA1 mRNA [3]): ~45%
- CYP3A activity (CYP3A): increase
- HDL-C relative to controls (methylcellulose) (serum HDL-C): significantly elevated
- HDL-C (HDL-C): increase
- apoA1 (hepatic apoA1 mRNA [4]): increase
- increase in apoA1 relative to controls (serum ApoA1 [1]; 100 mg/kg once daily 7 days): ~3.7 fold
- apoA1 relative to controls (methylcellulose) (serum ApoA1 [1]): significantly elevated
- apoA1 relative to control (serum ApoA1 [2]): neither rifampin nor CDD 3540 elicited significant changes
